In data set [1] the test system is MW2 stationary-phase cells. Briefly: Bacterial membrane integrity with SYTOX Green. The settings on record: V, V-r8 20 μM; lysostaphin 10×MIC.
Source text: V-r8 mode-of-action analysis using stationary-phase MW2. All data points represent the median of biological duplicates from a representative experiment; all experiments were repeated on a different day to ensure reproducibility. V-r8 was the TFA salt, and PBS was used for the cell only control. […] Assay detection limit=2.3. […] Compound data was normalized to cell-only control data.
Evaluation of Bacterial Membrane Integrity with SYTOX Green. The SYTOX Green assay was adapted from the literature. Briefly, to a black wall clear-bottom 96-well plate (Costar 3603) was added 50 μL of PBS per well containing antibiotics at 2-times the indicated concentration. 1 mL of a stationary phase MW2 culture was pelleted at 10,000 g for 1 min and washed 3 times with the same volume of sterile-filtered PBS. The washed cells were diluted to OD600=0.1 (˜4×10^7 CFU/mL) with PBS. SYTOX Green (Molecular Probes) was added to the diluted stationary phase suspension for a final concentration of 5 μM and incubated for 0.5 h at room temperature in the dark. 50 μL of the bacteria/SYTOX Green mixture was added to each well of 96-well plates containing antibiotics and fluorescence was measured at 37° C. with shaking for up to 4 h using a spectrophotometer (SpectraMax M3, Molecular Devices) with excitation and emission wavelengths of 485 and 525 nm, respectively. Lysostaphin (1.25 μg/mL) was used as a positive control. The experiment was performed twice on separate days.
Data set [2] has as its system MRSA USA300 biofilms. Briefly: Biofilm reduction in vitro after 5 h treatment, Calgary Biofilms Device. Type of data set: cell-based, Staphylococcus aureus. The settings on record: for Log CFU/ml counts: 5 h treatment, median (IQR), untreated 4.5, detection limit 2 Log.
In data set [3] the test system is MRSA (USA300LAC).
Procedure: (§1) Determination of MICs. MICS were determined using broth microdilution in accordance with CLSI methods.^6 One day prior to each MIC experiment, bacterial strains were streaked for single colonies from frozen glycerol stocks stored at −80° C. on Tryptic soy agar. 3-5 colonies from each plate were harvested with a disposable inoculating loop and resuspended in 500 μL PBS. This suspension was diluted in sterile-filtered PBS to an OD of 0.1(˜1×10^8 CFU/ml), and the OD 0.1 suspension was diluted 1:100 in Mueller-Hinton Broth (MHB, Difco 257530) just prior to inoculating the 96-well polypropylene treatment plate. The treatment plate was prepared as follows: 20-fold stocks of the highest concentration of compound tested were prepared in sterile-filtered PBS and were subsequently diluted in MHB to prepare working stocks at 2-times the final concentration. 100 μL of each working stock was placed in the highest concentration treatment well, and the working stocks were 2-fold serially diluted in MHB to lend final treatment volumes of 50 μL/well. 50 μL of adjusted inoculum was added to each well to lend a total volume of 100 μL/well and a final inoculum density of ˜5×10^5 colony forming units (CFU/ml). 10 μL of inoculum in growth control wells was serially diluted in PBS and plated on Tryptic soy agar to verify accurate starting density of cells. Growth controls were included in each plate, where no treatment was applied, along with media only controls. Edge wells were filled with PBS. The completed assay plate was sealed with parafilm, placed in a lidded plastic tray lined with moistened paper towels, and incubated at 37° C. for 18-20 h.
In data set [4] the test system is S. aureus biofilms.
Procedure: (§2) Determination of MBECs. Minimum Biofilm Eradication Concentrations (MBECs) were determined in accordance with literature methods. Prior to each assay, 4 mL Tryptic Soy broth (TSB) was inoculated with one colony of S. aureus 29213, MW2 or USA300 and incubated at 37° C., 200 rpm shaking until stationary phase was reached (OD>2). The cultures were adjusted to in TSB to achieve a final inoculum density of 1×10^7 CFU/ml, and 150 μL of inoculum was added to each well of a 96-well base plate (Nunc™ 269787), and a plate lid containing 96 pegs (Nunc™ 445497) was added to the base. The entire apparatus was sealed with parafilm and placed in a sealed plastic bag lined with moistened paper towels for 48 h growth with shaking (150 rpm) at 35° C.
(§3) To prepare biofilm treatment plates, 20-fold stocks of the highest concentration tested were made in sterile-filtered PBS. The 20-fold stocks were diluted in TSB to yield 2-fold working stocks; 200 μL of working stock was added to the highest concentration treatment well and 2-fold serially diluted across the plate to lend final treatment volumes of 100 μL/well. TSB was added to treatment wells to yield final volume of 200 μL/well. PBS was added to the edge wells of the 96-well plate.
Prior to treatment, 48 h biofilms were rinsed in a 96-well plate containing 200 μL PBS/well for one minute and then the peg lid was transferred to the treatment plate. The plate was parafilmed and incubated at 35° C. for 24 h with 150 rpm shaking. Upon 24 h treatment, the peg lid was removed, rinsed in 200 μL PBS buffer twice for 1 min each, then transferred to a recovery plate containing 200 μL TSB+1% Tween-20 per well. The apparatus was placed in a steel tray and sonicated in a water bath sonicator (Branson 1510) for 10 min to dislodge biofilms. The peg lid was subsequently removed and the media-containing plate was incubated for 20 h at 35° C. with 150 rpm shaking to recover biofilms. The MBEC was read as the lowest treatment concentration where no growth occurred, as determined by measuring by OD600 on a plate reader. The values reported are median values from a minimum of two experiments performed on different days.
The test system of data set [5] is P. aeruginosa PA14. The settings on record: P. aeruginosa PA14, one trial only.
Procedure: (§4) Determination of MICs. MICS were determined using broth microdilution in accordance with CLSI methods.^6 One day prior to each MIC experiment, bacterial strains were streaked for single colonies from frozen glycerol stocks stored at −80° C. on Tryptic soy agar. 3-5 colonies from each plate were harvested with a disposable inoculating loop and resuspended in 500 μL PBS. This suspension was diluted in sterile-filtered PBS to an OD of 0.1(˜1×10^8 CFU/ml), and the OD 0.1 suspension was diluted 1:100 in Mueller-Hinton Broth (MHB, Difco 257530) just prior to inoculating the 96-well polypropylene treatment plate. The treatment plate was prepared as follows: 20-fold stocks of the highest concentration of compound tested were prepared in sterile-filtered PBS and were subsequently diluted in MHB to prepare working stocks at 2-times the final concentration. 100 μL of each working stock was placed in the highest concentration treatment well, and the working stocks were 2-fold serially diluted in MHB to lend final treatment volumes of 50 μL/well. 50 μL of adjusted inoculum was added to each well to lend a total volume of 100 μL/well and a final inoculum density of ˜5×10^5 colony forming units (CFU/ml). 10 μL of inoculum in growth control wells was serially diluted in PBS and plated on Tryptic soy agar to verify accurate starting density of cells. […]
For data set [6], the system named is MSSA (29213).
Procedure: (§5) MICS were determined using broth microdilution in accordance with CLSI methods.^6 One day prior to each MIC experiment, bacterial strains were streaked for single colonies from frozen glycerol stocks stored at −80° C. on Tryptic soy agar. 3-5 colonies from each plate were harvested with a disposable inoculating loop and resuspended in 500 μL PBS. This suspension was diluted in sterile-filtered PBS to an OD of 0.1(˜1×10^8 CFU/ml), and the OD 0.1 suspension was diluted 1:100 in Mueller-Hinton Broth (MHB, Difco 257530) just prior to inoculating the 96-well polypropylene treatment plate. The treatment plate was prepared as follows: 20-fold stocks of the highest concentration of compound tested were prepared in sterile-filtered PBS and were subsequently diluted in MHB to prepare working stocks at 2-times the final concentration. 100 μL of each working stock was placed in the highest concentration treatment well, and the working stocks were 2-fold serially diluted in MHB to lend final treatment volumes of 50 μL/well. 50 μL of adjusted inoculum was added to each well to lend a total volume of 100 μL/well and a final inoculum density of ˜5×10^5 colony forming units (CFU/ml). 10 μL of inoculum in growth control wells was serially diluted in PBS and plated on Tryptic soy agar to verify accurate starting density of cells. Growth controls were included in each plate, where no treatment was applied, along with media only controls. Edge wells were filled with PBS. The completed assay plate was sealed with parafilm, placed in a lidded plastic tray lined with moistened paper towels, and incubated at 37° C. for 18-20 h.
For data set [7], the system named is USA300 LAC biofilm wound. Briefly: Murine skin wound excisional biofilm model. The settings on record: 0.05% solution topical, 5 h treatment, 24 h post infection, compared to untreated mice.
Data set [8] concerns MRSA (USA400MW2).
Procedure: as §5
Data set [9] has as its system V. cholerae. Kind of data set: Time-kill study of V. cholerae. It is filed as cell-based. The settings on record: equivalent concentrations. As to the method: FIG. 11A-11B. Time-kill study of V. cholerae treated with compounds. (FIG. 11A) Treatments were performed at 20 μM in media. (FIG. 11B) Treatments were performed at 2×MIC in PBS. Kan refers to kanamycin, a FDA-approved aminoglycoside. Data points are from a representative experiment. Detection limit=2.3 Log (CFU/ml).

In data set [10] the test system is V. cholerae El Tor A1552R.
For data set [11], the system named is E. coli UTI89.
Procedure: as §5
Data set [12] deals with MRSA USA300 LAC persister cells. Kind of data set: Time-kill of persister cells generated with ciprofloxacin. The settings on record: for killing of persister cells: in words. It is filed as cell-based, Staphylococcus aureus. The procedure:
FIG. 1. Time-kill study of MRSA USA300 LAC persister cells treated with vancomycin and V-r8. MRSA persister cells were generated by treatment with ciprofloxacin at 40 μM for 6 h. Vancomycin or V-r8 (TFA salt) was then introduced at a concentration of 10 μM. Data points are median Log(CFU/ml) values from 2 independent experiments (N=2) where treatments were performed in singlicate. Error bars represent IQR. Detection limit: 1 Log(CFU/ml).
Evaluation of antibacterial activity against persister cells. USA300 persister cells were generated by diluting an overnight culture of USA300 bacteria 1:1000 in 4 mL MHB and growing to OD 0.5 at 37° C. with 200 rpm shaking. […] Upon 6 h treatment with ciprofloxacin, 500 μL culture aliquots were added to Eppendorf tubes and compounds were added from concentrated stocks (mM range) to yield desired final concentrations (10-20 μM). […] CFU/ml were plated at indicated time points to monitor treatment efficacy. The experiment was performed at least twice on separate days.

For data set [13] the following is noted: 0.05% V-r8, absence of bacteria.
Procedure: To examine in vivo cytotoxicity, sterile wounds were generated and inoculated only with water (FIG. 8A) or 0.05% V-r8 (FIG. 8B) in the absence of bacteria. Wound tissue was harvested after 3 days and examined by Hematoxylin & Eosin staining. […] Epi: skin epidermis; Der: skin dermis. Scale bar represents 100 μm. Images are representative of 3 independent samples.
In vivo histological cytotoxicity assessment. […] Samples were fixed in 4% paraformaldehyde in PBS and incubated in 20% sucrose for 24 hours. Tissues were then embedded into Optical Cutting Temperature (OCT) compound (Sakura, California) and snap frozen in liquid nitrogen. 12 μm sections were obtained on a Leica CM1860 UV cryotome (Leica Biosystems, Ernst-Leitz Strasse, Germany), stained with hemotoxylin and eosin (H&E), and visualized using an Axio Scan.Z1 slide scanner (Carl Zeiss, Göttingen, Germany) under 20×/0.8 Apochrome objective as previously described.
In data set [14] the test system is planktonic S. aureus. Kind of data set: Antibacterial activity against planktonic bacteria (summary over strains). The settings on record: in words.
Procedure: as §4
Data set [15] has as its system MRSA USA400 MW2. Kind of data set: Time-kill in MHB. It is filed as cell-based, Staphylococcus aureus. The settings on record: 20 μM; detection limit 2.3 Log(CFU/ml). The procedure:
FIG. 9. Influence of V and V-r8 (both at 20 μM) on cell viability for MRSA USA400 MW2 in MHB.

Data set [16] concerns E. faecium Van-Resistant.
Procedure: as §5
Data set [17] has as its system MSSA (29213) biofilm.
Procedure: as §2, §3
(§6) Prior to treatment, 48 h biofilms were rinsed in a 96-well plate containing 200 μL PBS/well for one minute and then the peg lid was transferred to the treatment plate. The plate was parafilmed and incubated at 35° C. for 24 h with 150 rpm shaking. Upon 24 h treatment, the peg lid was removed, rinsed in 200 μL PBS buffer twice for 1 min each, then transferred to a recovery plate containing 200 μL TSB+1% Tween-20 per well. The apparatus was placed in a steel tray and sonicated in a water bath sonicator (Branson 1510) for 10 min to dislodge biofilms. The peg lid was subsequently removed and the media-containing plate was incubated for 20 h at 35° C. with 150 rpm shaking to recover biofilms. The MBEC was read as the lowest treatment concentration where no growth occurred, as determined by measuring by OD600 on a plate reader. […]
The subject of data set [18] is MRSA (USA300LAC) biofilm.
Procedure: as §2, §3, §6
In data set [19] the test system is P. aeruginosa PA14. Briefly: microbe, parasite or virus in culture. The settings on record: Pseudomonas aeruginosa, PA14, read-out: Median MIC.
Procedure: as §4
Data set [20] has as its system MRSA (USA400MW2). Kind of data set: microbe, parasite or virus in culture. The settings on record: Staphylococcus aureus, read-out: Minimum Inhibitory Concentration (MIC).
Procedure: as §5
The test system of data set [21] is E. faecium Van-Susceptible. Briefly: microbe, parasite or virus in culture. The settings on record: Enterococcus faecium, read-out: E. faecium MICs Van-Susceptible.
Procedure: as §4
In data set [22] the test system is H. pylori. Kind of data set: MIC, Gram-negative planktonic strains. The settings on record: Helicobacter pylori.
Procedure: as §4
For data set [23], the system named is A. baumannii. Kind of data set: MIC, Gram-negative planktonic strains. The settings on record: Acinetobacter baumannii.
Procedure: as §4
Data set [24] relates to E. coli UTI89. Kind of data set: microbe, parasite or virus in culture. The settings on record: Escherichia coli, UTI89, read-out: Median MIC.
Procedure: as §5
Data set [25] relates to MRSA (USA400MW2) biofilm.
Procedure: as §2
To prepare biofilm treatment plates, 20-fold stocks of the highest concentration tested were made in sterile-filtered PBS. […]
Prior to treatment, 48 h biofilms were rinsed in a 96-well plate containing 200 μL PBS/well for one minute and then the peg lid was transferred to the treatment plate. […] The MBEC was read as the lowest treatment concentration where no growth occurred, as determined by measuring by OD600 on a plate reader. […]
Data set [26] concerns E. faecalis Van-Susceptible. Kind of data set: microbe, parasite or virus in culture. The settings on record: Enterococcus faecalis, read-out: E. faecalis MICs Van-Susceptible.
Procedure: as §4
For data set [27], the system named is MRSA (USA300LAC). Kind of data set: microbe, parasite or virus in culture. The settings on record: Staphylococcus aureus, read-out: Minimum Inhibitory Concentration (MIC).
Procedure: as §1
Data set [28] relates to E. faecium Van-Resistant. Briefly: microbe, parasite or virus in culture. The settings on record: Enterococcus faecium, read-out: E. faecium MICs Van-Resistant.
Procedure: as §5
Data set [29] deals with E. faecalis Van-Resistant.
Procedure: as §5
For data set [30], the system named is MSSA (29213). Kind of data set: microbe, parasite or virus in culture. The settings on record: Staphylococcus aureus, read-out: Minimum Inhibitory Concentration (MIC).
Procedure: as §5
The test system of data set [31] is V. cholerae El Tor A1552R. Kind of data set: microbe, parasite or virus in culture. The settings on record: Vibrio cholerae, ELTORA1552R, read-out: Median MIC.
Data set [32] deals with E. faecalis Van-Resistant. Kind of data set: microbe, parasite or virus in culture. The settings on record: Enterococcus faecalis, read-out: E. faecalis MICs Van-Resistant.
Procedure: as §5
Data set [33] concerns E. faecalis Van-Susceptible.
Procedure: as §4
Data set [34] relates to E. faecium Van-Susceptible.
Procedure: as §4
The mark [35] stands for this setting: median (IQR), MSSA (29213), 24 h treatment in media.
[36] abbreviates: median (IQR), MRSA (USA300LAC), 24 h treatment in media.

In brackets after ≈: the same amount, converted by molar mass. Entries after “also recorded” stand apart in the source; their conditions may differ. Like-named read-outs stand apart in the source and are kept apart here. A value given as a limit tells only on which side of the number the result lay.

This is an account of results in patent US12194105B2, “Composition and method for new antimicrobial agents with secondary mode of action provided by conjugation of an antimicrobial to a guanidinium-rich molecular transporter” (The Board of Trustees of the Leland Stanford Junior …, priority 2018, dated 2025).

`CN[C@H](CC(C)C)C(=O)N[C@H]1C(=O)N[C@@H](CC(N)=O)C(=O)N[C@H]2C(=O)N[C@H]3C(=O)N[C@H](C(=O)N[C@H](C(=O)NCCCCCC(=O)N[C@H](CCCNC(=N)N)C(=O)N[C@H](CCCNC(=N)N)C(=O)N[C@H](CCCNC(=N)N)C(=O)N[C@H](CCCNC(=N)N)C(=O)N[C@H](CCCNC(=N)N)C(=O)N[C@H](CCCNC(=N)N)C(=O)N[C@H](CCCNC(=N)N)C(=O)N[C@H](CCCNC(=N)N)C(N)=O)c4cc(O)cc(O)c4-c4cc3ccc4O)[C@H](O)c3ccc(c(Cl)c3)Oc3cc2cc(c3O[C@@H]2O[C@H](CO)[C@@H](O)[C@H](O)[C@H]2O[C@H]2C[C@](C)(N)[C@H](O)[C@H](C)O2)Oc2ccc(cc2Cl)[C@H]1O` [V-r8, vancomycin-D-octaarginine]: the “SYTOX Green uptake (membrane damage)” value in data set [1] is “no SYTOX Green uptake”. In addition, the “Log CFU/ml counts” value in data set [2] (16 μM in PBS) is given as 2.2 (0.2) Log CFU/ml; in [2] (32 μM in PBS) it was 2.0 (0) Log CFU/ml. Moreover, the “biofilm-associated MRSA eradicated” value in data set [2] (5 h treatment at 16 and 32 μM) is given as 98%. For the same molecule, the “Minimum Inhibitory Concentration (MIC)” value in data set [3] (median (IQR), MRSA (USA300LAC)) is recorded as 2.0 (0.1) μM; in data set [6] (median (IQR), MSSA (29213)) it was 1.6 (0.5) μM; in [8] (median (IQR), MRSA (USA400MW2)) it was 0.94 (0.2) μM. Further, the “better potency over vancomycin in diminishing growth of biofilm-associated bacteria” value in data set [4] (in PBS) is on record as 160 fold; in [4] (in media), more than 31 fold. In addition, in [4] (range over S. aureus strains of Table 1), the “minimum biofilm eradication concentrations (MBECs)” value is 2.5 to 16 µM. Further, the “Median MIC” value was more than 32 µM in data set [5], 10 µM in data set [10] and not below 32 µM in data set [11] (E. coli UTI89). Moreover, the “reduction in biofilm bacterial load (CFU/wound)” value in data set [7] is reported as “significant reduction; also recorded: as effective as 2% fusidic acid”. Moreover, the “killing relative to V, r8 and untreated cells” value in data set [9] (after 4 h) is ~5 orders of magnitude. Besides, the “higher killing than kanamycin” value in [9] (over the first 2 h) was 2-3 orders of magnitude. Besides, in [12] (at 20 μM), the “efficacy against persister cells relative to vancomycin” value is more than 1500 fold. The “killing of persister cells” value in data set [12] is reported as “enhanced killing of persister cells”. Moreover, the “acute toxicity, open wound” value in [13] was “no acute toxicity”. Further, the “antimicrobial activity against planktonic S. aureus” value in [14] was “single digit micromolar”. In addition, the “cell killing, time-kill in MHB” value in [15] was “rapid killing; also recorded: eradicated MRSA to the CFU/ml detection limit”. Further, the “improvement against VRE faecium (over vancomycin)” value in data set [16] was 128 fold. The “Minimum Biofilm Eradication Concentration (MBEC)” value in data set [17] (setting [35]) was 16 µM; in data set [18] (setting [36]) it was 9.5 µM.
As to `CN[C@H](CC(C)C)C(=O)N[C@H]1C(=O)N[C@@H](CC(N)=O)C(=O)N[C@H]2C(=O)N[C@H]3C(=O)N[C@H](C(=O)N[C@H](C(=O)O)c4cc(O)cc(O)c4-c4cc3ccc4O)[C@H](O)c3ccc(c(Cl)c3)Oc3cc2cc(c3O[C@@H]2O[C@H](CO)[C@@H](O)[C@H](O)[C@H]2O[C@H]2C[C@](C)(N)[C@H](O)[C@H](C)O2)Oc2ccc(cc2Cl)[C@H]1O` [Vancomycin], the “SYTOX Green uptake (membrane damage)” value in [1] was “no SYTOX Green uptake”. Moreover, the “Log CFU/ml counts” value in [2] (16 μM in PBS) was 4.3 (0.3) Log CFU/ml; in [2] (32 μM in PBS), 5.1 (1.0) Log CFU/ml. In data set [2] (16 and 32 μM, in words), the “killing of biofilms after 5 h treatment” value is “ineffective”. Moreover, the MIC in data set [19] was more than 256 µM; in [20], 0.5 µM (≈ 0.725 µg/mL); in data set [21], 0.375 µM (≈ 0.543 µg/mL); in [22], more than 32 µM; in [23], more than 32 µM; in data set [24] it was more than 128 µM. Further, the MIC amounted to 1.5 µM (≈ 2.17 µg/mL) in data set [26]; 0.5 µM (≈ 0.725 µg/mL) in data set [27]; 512 µM (≈ 742 µg/mL) in data set [28]; 0.5 µM (≈ 0.725 µg/mL) in data set [30]; 100 µM (≈ 145 µg/mL) in [31]; 128 µM (≈ 186 µg/mL) in data set [32]. The “reduction in biofilm bacterial load (CFU/wound)” value in [7] is recorded as “not statistically significant”. For the same molecule, in data set [12], the “killing of persister cells” value is recorded as “ineffective”. The “Minimum Biofilm Eradication Concentration (MBEC)” value in data set [25] (median (IQR), MRSA (USA400MW2), 24 h treatment in media) was not below 500 µM; in data set [17] (setting [35]) it was not below 500 µM; in data set [18] (setting [36]), not below 400 µM. For the same molecule, in [29] (resistant versus susceptible), the “increase of MIC in VRE faecalis” value is recorded as more than 85 fold. In data set [15], the “cell killing, time-kill in MHB” value is given as “required longer treatment time”. Also, the “increase of MIC in VRE faecium” value in data set [16] (resistant versus susceptible) was more than 1350 fold.
`N=C(N)NCCC[C@@H](N)C(=O)N[C@H](CCCNC(=N)N)C(=O)N[C@H](CCCNC(=N)N)C(=O)N[C@H](CCCNC(=N)N)C(=O)N[C@H](CCCNC(=N)N)C(=O)N[C@H](CCCNC(=N)N)C(=O)N[C@H](CCCNC(=N)N)C(=O)N[C@H](CCCNC(=N)N)C(N)=O` [r8, octa-D-arginine]: the “Minimum Inhibitory Concentration (MIC)” value in data set [3] (USA300) was 40 (0) μM; in data set [6] (29213), 60 (20) μM; in data set [8] (USA400), 20 (0) μM. Also, in data set [4] (in words), the “ability to eradicate biofilms” value is on record as “unable to eradicate biofilms”. The “Median MIC” value in data set [11] (UTI89) is 36 µM. Further, the “killing of persister cells” value in data set [12] is “no activity”. Besides, the “Minimum Biofilm Eradication Concentration (MBEC)” value is more than 80 µM in data set [25] (USA400, 24 h); more than 80 µM in data set [17] (29213) biofilm, 24 h); more than 80 µM in data set [18] (USA300, 24 h). The “E. faecalis MICs Van-Resistant” value in [29] (Van-Resistant) was more than 64 µM. For the same molecule, the “E. faecalis MICs Van-Susceptible” value in [33] was more than 64 µM. The “E. faecium MICs Van-Resistant” value in [16] (Van-Resistant) was more than 128 µM. For the same molecule, the “E. faecium MICs Van-Susceptible” value in data set [34] was more than 64 µM.
On to “Lysostaphin: an antibacterial enzyme that induces membrane permeabilization, positive control”, for which the “SYTOX Green uptake (membrane damage)” value in data set [1] is reported as “Rapid uptake of SYTOX Green”.
